# Results reported in ChEMBL document CHEMBL4819049, “Estrogenic activity of ethyl gallate and its potential use in hormone replacement therapy” (Bioorg Med Chem Lett, 2021).
# Calls of active or inactive are those of the source. No cut-off for these calls is given here.
# Columns and labels:
# MCF7 [1] = test: Cytotoxicity against human ER-positive MCF7 cells assessed as increase in cell proliferation at 12.5 to 100 uM incubated for 24 hrs; format: cell-based; conditions: mcf7, 24 h, dose 12.5-100 µM
# MCF7 [2] = test: Estrogenic activity at human ER-positive MCF7 cells assessed as increase in cell proliferation at 50 uM incubated for 144 hrs by Soto's E-screen assay; format: functional, cell-based
# MCF7 [3] = test: Cytotoxicity against human ER-positive MCF7 cells assessed as reduction in cell proliferation at 50 uM incubated for 144 hrs by Soto's E-screen assay; format: cell-based; conditions: mcf7, 144 h
# Rattus norvegicus [4] = test: Estrogenic activity in immature rat model assessed as uterine weight at 10 ug/kg, sc (reference value: 37.67 mg); format: functional; conditions: dose 10 µg/kg
# MCF7 [5] = test: Estrogenic activity at human ER-positive MCF7 cells assessed as cell proliferation at 50 uM incubated for 144 hrs by Soto's E-screen assay relative to control; format: functional; conditions: read-out: Activity
# MCF7 [6] = test: Estrogenic activity at human ER-positive MCF7 cells assessed as increase in cell proliferation at 50 uM incubated for 144 hrs in presence of ER antagonist, ICI182780 by Soto's E-screen assay; format: functional, cell-based
# Rattus norvegicus [7] = test: Estrogenic activity in immature rat model assessed as uterine weight at 100 mg/kg, sc administered once daily for 3 days (reference value: 37.67 mg); format: functional; conditions: dose 100 mg/kg/day; time 3 day
# [8] = biological target: T1, Estrogen receptor (Homo sapiens) (UniProt P03372); test: Agonist activity at ER in human MCF7 cells assessed as increase in receptor gene activity by luciferase reporter gene assay; format: cell-based; conditions: filed as agonist, dose 12.5-100 µM
# T1 sequence (whole entry): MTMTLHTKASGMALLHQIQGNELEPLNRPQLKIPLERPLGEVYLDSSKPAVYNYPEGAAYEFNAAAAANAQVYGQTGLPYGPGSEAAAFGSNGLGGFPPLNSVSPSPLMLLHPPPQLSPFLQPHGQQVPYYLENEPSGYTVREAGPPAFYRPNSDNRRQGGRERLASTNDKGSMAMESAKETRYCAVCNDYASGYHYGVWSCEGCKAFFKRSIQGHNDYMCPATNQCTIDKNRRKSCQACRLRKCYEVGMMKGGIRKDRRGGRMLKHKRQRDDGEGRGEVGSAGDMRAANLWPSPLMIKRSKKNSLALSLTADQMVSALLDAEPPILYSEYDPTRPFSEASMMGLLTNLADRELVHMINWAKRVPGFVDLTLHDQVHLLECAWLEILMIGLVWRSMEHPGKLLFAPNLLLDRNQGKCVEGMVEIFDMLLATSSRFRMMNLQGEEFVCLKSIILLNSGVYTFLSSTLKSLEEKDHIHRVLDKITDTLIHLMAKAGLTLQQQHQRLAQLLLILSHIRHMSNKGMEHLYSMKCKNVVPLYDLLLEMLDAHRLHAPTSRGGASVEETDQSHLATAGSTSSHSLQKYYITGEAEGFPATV
# [9] = biological target: T1, Estrogen receptor (Homo sapiens); test: Agonist activity at ER in human MCF7 cells assessed as increase in receptor gene activity at 12.5 to 100 uM in presence of ER antagonist, ICI182780 by luciferase reporter gene assay; format: cell-based; conditions: dose 12.5-100 µM
# [10] = biological target: T1, Estrogen receptor (Homo sapiens); test: Agonist activity at ER in human MCF7 cells assessed as increase in receptor gene activity at 12.5 to 100 uM in presence of ER agonist, 17-beta-estradiol by luciferase reporter gene assay relative to control; format: cell-based; conditions: dose 12.5-100 µM
# MCF7 [11] = test: Estrogenic activity at human ER-positive MCF7 cells assessed as increase in cell proliferation incubated for 144 hrs by Soto's E-screen assay; format: functional, cell-based; conditions: dose 25-100 µM
# MCF7 [12] = test: Estrogenic activity at human ER-positive MCF7 cells assessed as increase in cell proliferation at 12.5 to 100 uM incubated for 144 hrs in presence of ER antagonist, ICI182780 by Soto's E-screen assay; format: functional, cell-based; conditions: dose 12.5-100 µM
# MCF7 [13] = test: Cytotoxicity against human ER-positive MCF7 cells assessed as decrease in cell proliferation at 12.5 to 100 uM incubated for 24 hrs; format: functional, cell-based; conditions: for IC50: MCF7, 24 h; for inhibition: dose 12.5-100 µM
# MCF7 [14] = test: Cytotoxicity against human ER-positive MCF7 cells assessed as cell proliferation at 50 uM incubated for 144 hrs by Soto's E-screen assay relative to control; format: cell-based; conditions: mcf7, 144 h
SMILES,Activity (MCF7 [1]),Activity (MCF7 [2]),Activity (MCF7 [3]),further results
C[C@@]12C[C@@]3(O)O[C@@H](O1)[C@]1(COC(=O)c4ccccc4)[C@H]3C[C@@]12O[C@@H]1O[C@H](COC(=O)c2ccccc2)[C@@H](O)[C@H](O)[C@H]1O,Non-Toxic,inactive,Non-Toxic,
C[C@@]12C[C@@]3(O)O[C@@H](O1)[C@]1(COC(=O)c4ccc(O)cc4)[C@H]3C[C@@]12O[C@@H]1O[C@H](CO)[C@@H](O)[C@H](O)[C@H]1O,Non-Toxic,inactive,Non-Toxic,
O=C(O)c1ccccc1 [BENZOIC ACID],Non-Toxic,inactive,Non-Toxic,
C[C@]12CC[C@@H]3c4ccc(O)cc4CC[C@H]3[C@@H]1CC[C@@H]2O [ESTRADIOL],,,,Activity (Rattus norvegicus [4]): 51 mg
CCOC(=O)c1cc(O)c(O)c(O)c1 [ETHYLGALLATE],Non-Toxic,,,growth at 50 µM (MCF7 [5]): 131%; Activity (MCF7 [6]): inactive; Activity (Rattus norvegicus [7]): 43.67 mg; Activity [8]: Dose-Dependent Effect; Activity [9]: inactive; fold change (FC) [10]: > 2; Activity (MCF7 [11]): Dose-Dependent Effect; Activity (MCF7 [12]): inactive; IC50 (MCF7 [13]): 62.5 µM; inhibition (MCF7 [13]): Dose-Dependent Effect
O=C(O)c1cc(O)c(O)c(O)c1 [GALLIC ACID],Non-Toxic,,,Activity (MCF7 [14]): 15.8%; IC50 (MCF7 [13]): 17.4 µM; inhibition (MCF7 [13]): Dose-Dependent Effect
C[C@@]12C[C@@]3(O)O[C@@H](O1)[C@]1(COC(=O)c4ccccc4)[C@H]3C[C@@]12O[C@@H]1O[C@H](CO)[C@@H](O)[C@H](O)[C@H]1O [PAEONIFLORIN],Non-Toxic,inactive,Non-Toxic,
COc1ccc(C(C)=O)c(O)c1 [PAEONOL],Non-Toxic,inactive,Non-Toxic,
